# T1: CXCR3 (Homo sapiens, UniProt P49682)
# T1 sequence (P49682 1-415 isoform P49682-2): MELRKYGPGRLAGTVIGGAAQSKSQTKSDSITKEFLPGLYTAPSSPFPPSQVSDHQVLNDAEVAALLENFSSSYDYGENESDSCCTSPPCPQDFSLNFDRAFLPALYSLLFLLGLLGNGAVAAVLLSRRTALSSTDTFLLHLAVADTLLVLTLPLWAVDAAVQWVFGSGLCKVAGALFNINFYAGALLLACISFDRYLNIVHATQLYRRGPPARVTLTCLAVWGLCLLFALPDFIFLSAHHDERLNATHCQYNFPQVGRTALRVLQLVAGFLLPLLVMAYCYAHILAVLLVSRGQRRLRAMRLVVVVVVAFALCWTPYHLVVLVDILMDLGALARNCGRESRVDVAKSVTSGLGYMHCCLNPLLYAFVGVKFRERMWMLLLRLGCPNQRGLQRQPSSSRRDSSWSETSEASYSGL
# B1: CXCL9: recombinant human chemokine (PeproTech), CXCR3 ligand used as stimulus (protein, UniProt Q07325 23-125, looked up)
# C-X-C motif chemokine 9: TPVVRKGRCSCISTNQGTIHLQSLKDLKQFAPSPSCEKIEIIATLKNGVQTCLNPDSADVKELIKKWEKQVSQKKKQKNGKKHQKKKVLKVRKSQRSRQKKTT
# B2: CXCL11: recombinant human chemokine (PeproTech), CXCR3 ligand used as stimulus (protein, UniProt O14625 22-94, looked up)
# C-X-C motif chemokine 11: FPMFKRGRCLCIGPGVKAVKVADIEKASIMYPSNNCDKIEVIITLKENKGQRCLNPKSKQARLIIKKVERKNF
# Key:
# Assay type in all cases: cell-based
# [1] = target: T1, CXCR3; experiment: CXCL10-induced melanocyte death, IncuCyte live cell imaging, with CXCR3 antagonist, blocking antibody or siCXCR3; conditions: IFNγ-pretreated (50 ng/ml, 48 hrs) vitiligo melanocytes; AS612568 0.02, 0.2, 2 μM; FIG. 2A
# Protocol: (A) Effect of CXCL10 (5, 20, 100 pg/ml) on cell viability in unstimulated or IFNγ stimulated (50 ng/ml for 48 hrs) melanocytes from vitiligo patients, in presence or absence of CXCR3 antagonist AS612568 (0.02 μM, 0.2 μM or 2 μM) (n=5-8). Cell viability was monitored using lncuCyte® live cell fluorescence imaging system. (B) Effect of siCXCR3 or siC on CXCL10 (100 pg/ml)-induced death of healthy (n=4-8) and vitiligo (n=4) melanocytes. Melanocytes were tracked with CellTracker™ Red CMPTX dye and dead cells tracked with IncuCyte® Cytotox Green reagent. […] Cell viability was monitored using IncuCyte® live cell fluorescence imaging system. […] Results are expressed as mean with SEM, *P<0.05, **P<0.01 and ***P<0.001.
# Melanocytes were plated in 96-well plates (10,000/well) and stimulated with 50 ng/ml IFNγ for 48 hrs prior to transfection with 50 or 80 nM siCXCR3 or siC (SmartPool scramble sequence siRNA, Dharmacon, France) or with 80 nM custom-designed siCXCR3B or siC (ThermoFisher, France) using Lipofectamine® RNAiMAX Reagent (Invitrogen, France) in optiMEM medium (Invitrogen). […] Finally, Incucyte® green Cytotox Reagent (100 nM, Essen Bioscience, Michigan, USA) was added to all wells and melanocyte death monitored in real-time using IncuCyte® Zoom live-cell imaging system (Essen Biosciences) which was inside a 37° C. humidified CO2 incubator scanning the plate every 2 hrs. […]
# [2] = target: T1, CXCR3; experiment: CXCL10-induced death of vitiligo melanocytes in co-culture with autologous CD3+ T cells, IncuCyte
# Excerpt: (A) CXCL10-induced death of vitiligo melanocytes in presence or absence of patients own autologous T cells. […] The next day, media was replaced and 3 days later patient's own CD3+ T cell were sorted and added to the melanocytes (n=3) prior to initiation of IncuCyte.
# [3] = test system: human melanocytes; experiment: Melanocyte death after chemokine stimulation, IncuCyte live cell imaging; conditions: for melanocyte death: chemokine 100 pg/ml, healthy and vitiligo melanocytes, 24 hrs, FIG. 2C
# Protocol: (A) Effect of CXCL10 (5, 20, 100 pg/ml) on cell viability in unstimulated or IFNγ stimulated (50 ng/ml for 48 hrs) melanocytes from vitiligo patients, in presence or absence of CXCR3 antagonist AS612568 (0.02 μM, 0.2 μM or 2 μM) (n=5-8). Cell viability was monitored using lncuCyte® live cell fluorescence imaging system. (B) Effect of siCXCR3 or siC on CXCL10 (100 pg/ml)-induced death of healthy (n=4-8) and vitiligo (n=4) melanocytes. Melanocytes were tracked with CellTracker™ Red CMPTX dye and dead cells tracked with IncuCyte® Cytotox Green reagent. (C) Healthy and vitiligo melanocytes (n=6-12) were transfected with custom-designed siCXCR3B or siC and melanocyte death shown at 24 hrs following CXCL10, CXCL9 or CXCL11 (100 pg/ml) stimulation. (D) Effect of CXCL10 (100 pg/ml) on cell viability in untreated or IFNγ pretreated (50 ng/ml for 48 hrs) melanocytes from vitiligo patients, in presence or absence of CXCR3 blocking antibody (MAB-160, R&D Systems, USA at 1 or 10 μg/ml) (n=3). Cell viability was monitored using IncuCyte® live cell fluorescence imaging system. Melanocytes were tracked with CellTracker™ Red CMPTX dye and dead cells tracked with IncuCyte® Cytotox Green reagent. Results are expressed as mean with SEM, *P<0.05, **P<0.01 and ***P<0.001.
# Melanocytes were plated in 96-well plates (10,000/well) and stimulated with 50 ng/ml IFNγ for 48 hrs prior to transfection with 50 or 80 nM siCXCR3 or siC (SmartPool scramble sequence siRNA, Dharmacon, France) or with 80 nM custom-designed siCXCR3B or siC (ThermoFisher, France) using Lipofectamine® RNAiMAX Reagent (Invitrogen, France) in optiMEM medium (Invitrogen). […] Finally, Incucyte® green Cytotox Reagent (100 nM, Essen Bioscience, Michigan, USA) was added to all wells and melanocyte death monitored in real-time using IncuCyte® Zoom live-cell imaging system (Essen Biosciences) which was inside a 37° C. humidified CO2 incubator scanning the plate every 2 hrs. Multiple images were collected per well and quantification of dead melanocytes (yellow co-localised cells) was analysed using the integrated Zoom® software. […]
molecule,measurement,setting,value
"N#Cc1ccc(S(=O)(=O)N(Cc2ccc(-c3nnn[nH]3)c(F)c2)Cc2ccccc2F)cc1 [AS612568, 4-cyano-N-(3-fluoro-4-(1H-tetrazol-5-yl)benzyl)-N-(2-fluorobenzyl)benzenesulfonamide]",melanocyte death induced by CXCL10,[1],inhibited melanocyte death induced by CXCL10 in a dose-dependent manner
same,augmentation of T cell number,"[2]; AS612568 2 μM, CD3+ T cells in IncuCyte co-culture, P=0.04, FIG. 3B",prevented
same,potentiating effect of T cells on CXCL10-induced melanocyte death,"[2]; AS612568 2 μM, IFNγ-pretreated vitiligo melanocytes plus autologous CD3+ T cells, P=0.008, FIG. 3A",prevented
same,T cell proliferation,"[2]; AS612568, T cells co-cultured with IFNγ-primed, CXCL10-stimulated melanocytes, data not shown",prevented
"CXCL10: recombinant human chemokine (PeproTech), CXCR3 ligand used as stimulus",melanocyte death compared to non-stimulated melanocytes,"[3]; vitiligo melanocytes, IFNγ pre-treated, CXCL10 5, 20, 100 pg/ml, dose-dependent, P=0.006, FIG. 2A",significantly increased melanocyte death
B1,melanocyte death,[3],induced a significant melanocyte death
B2,melanocyte death,[3],induced a significant melanocyte death

# Reference: patent publication US20210061917A1, “METHODS AND COMPOSITIONS FOR TREATING VITILIGO” (INSERM (Institut National de la Santé et de la Recherche …, priority 2018, published 2021)
